{"source": "PubChem BioAssay AID2060886", "about": "(Molecular Pharmacology Branch, DTP, NCI, 2025)", "tested_on": "653999-131-R-J2-PDC complex spheroids, growth inhibition", "experiment": "Anticancer human tumor 653999-131-R-J2-PDC patient-derived lung adenocarcinoma cell line growth inhibition [RAS]", "settings": "for pIC50: curve of first compound; for viability, T/C: stronger effect = lower value", "summary_of_the_method": "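Multi-cell-type spheroids: tumor cells plus HUVEC endothelial cells and mesenchymal stem cells. RAS-pathway inhibitors were combined with targeted agents, each dosed in half-log steps down from clinical Cmax, or from 10 microM when Cmax was unknown.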", "key": {"[1]": {"settings": "second compound 0.00316 µM, first compound 0.0316 µM"}, "[2]": {"settings": "second compound 0.00316 µM, first compound 0.1 µM"}, "[3]": {"settings": "second compound 0.00316 µM, first compound 0.316 µM"}, "[4]": {"settings": "second compound 0.00316 µM, first compound 1 µM"}, "[5]": {"settings": "second compound 0.00316 µM, first compound 3.16 µM"}, "[6]": {"settings": "second compound 0.00316 µM, first compound 10 µM"}, "[7]": {"settings": "second compound 0.01 µM, first compound 0.0316 µM"}, "[8]": {"settings": "second compound 0.01 µM, first compound 0.1 µM"}, "[9]": {"settings": "second compound 0.01 µM, first compound 0.316 µM"}, "[10]": {"settings": "second compound 0.01 µM, first compound 1 µM"}, "[11]": {"settings": "second compound 0.01 µM, first compound 3.16 µM"}, "[12]": {"settings": "second compound 0.01 µM, first compound 10 µM"}, "[13]": {"settings": "second compound 0.0316 µM, first compound 0.0316 µM"}, "[14]": {"settings": "second compound 0.0316 µM, first compound 0.1 µM"}, "[15]": {"settings": "second compound 0.0316 µM, first compound 0.316 µM"}, "[16]": {"settings": "second compound 0.0316 µM, first compound 1 µM"}, "[17]": {"settings": "second compound 0.0316 µM, first compound 3.16 µM"}, "[18]": {"settings": "second compound 0.0316 µM, first compound 10 µM"}, "[19]": {"settings": "second compound 0.1 µM, first compound 0.0316 µM"}, "[20]": {"settings": "second compound 0.1 µM, first compound 0.1 µM"}, "[21]": {"settings": "second compound 0.1 µM, first compound 0.316 µM"}, "[22]": {"settings": "second compound 0.1 µM, first compound 1 µM"}, "[23]": {"settings": "second compound 0.1 µM, first compound 3.16 µM"}, "[24]": {"settings": "second compound 0.1 µM, first compound 10 µM"}, "[25]": {"settings": "second compound 0.316 µM, first compound 0.0316 µM"}, "[26]": {"settings": "second compound 0.316 µM, first compound 0.1 µM"}, "[27]": {"settings": "second compound 0.316 µM, first compound 0.316 µM"}, "[28]": {"settings": "second compound 0.316 µM, first compound 1 µM"}, "[29]": {"settings": "second compound 0.316 µM, first compound 3.16 µM"}, "[30]": {"settings": "second compound 0.316 µM, first compound 10 µM"}, "[31]": {"settings": "second compound 1 µM, first compound 0.0316 µM"}, "[32]": {"settings": "second compound 1 µM, first compound 0.1 µM"}, "[33]": {"settings": "second compound 1 µM, first compound 0.316 µM"}, "[34]": {"settings": "second compound 1 µM, first compound 1 µM"}, "[35]": {"settings": "second compound 1 µM, first compound 3.16 µM"}, "[36]": {"settings": "second compound 1 µM, first compound 10 µM"}}, "note": "pIC50: −log10 of the molar value.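 Also: spheroids exposed to the agents for seven days before the readout.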", "data": [{"smiles": "NC1c2ccccc2OC12CCN(c1cnc3c(N4CCCc5ncccc54)n[nH]c3n1)CC2", "note": "(centres undefined) + C=CC(=O)N1CCN(c2nc(OCC3CCCN3C)nc3c(F)c(-c4nc(N)cc(C)c4C(F)(F)F)c(Cl)cc23)C(C)C1", "values": [{"measurement": "pIC50", "setting": "second compound 0.00316 µM", "value": "< 5.00"}, {"measurement": "pIC50", "setting": "second compound 0.01 µM", "value": "< 5.00"}, {"measurement": "pIC50", "setting": "second compound 0.0316 µM", "value": "< 5.00"}, {"measurement": "pIC50", "setting": "second compound 0.1 µM", "value": "< 5.00"}, {"measurement": "pIC50", "setting": "second compound 0.316 µM", "value": "< 5.00"}, {"measurement": "pIC50", "setting": "second compound 1 µM", "value": "< 5.00"}, {"measurement": "viability, T/C", "setting": "[1]", "value": 69.5, "unit": "%"}, {"measurement": "viability, T/C", "setting": "[2]", "value": 70.1, "unit": "%"}, {"measurement": "viability, T/C", "setting": "[3]", "value": 80.6, "unit": "%"}, {"measurement": "viability, T/C", "setting": "[4]", "value": 79.7, "unit": "%"}, {"measurement": "viability, T/C", "setting": "[5]", "value": 70.5, "unit": "%"}, {"measurement": "viability, T/C", "setting": "[6]", "value": 64.6, "unit": "%"}, {"measurement": "viability, T/C", "setting": "[7]", "value": 78.4, "unit": "%"}, {"measurement": "viability, T/C", "setting": "[8]", "value": 75.2, "unit": "%"}, {"measurement": "viability, T/C", "setting": "[9]", "value": 78.5, "unit": "%"}, {"measurement": "viability, T/C", "setting": "[10]", "value": 89.3, "unit": "%"}, {"measurement": "viability, T/C", "setting": "[11]", "value": 68.6, "unit": "%"}, {"measurement": "viability, T/C", "setting": "[12]", "value": 69.9, "unit": "%"}, {"measurement": "viability, T/C", "setting": "[13]", "value": 76.5, "unit": "%"}, {"measurement": "viability, T/C", "setting": "[14]", "value": 77.7, "unit": "%"}, {"measurement": "viability, T/C", "setting": "[15]", "value": 82.5, "unit": "%"}, {"measurement": "viability, T/C", "setting": "[16]", "value": 67.8, "unit": "%"}, {"measurement": "viability, T/C", "setting": "[17]", "value": 86.4, "unit": "%"}, {"measurement": "viability, T/C", "setting": "[18]", "value": 81.6, "unit": "%"}, {"measurement": "viability, T/C", "setting": "[19]", "value": 97.8, "unit": "%"}, {"measurement": "viability, T/C", "setting": "[20]", "value": 75, "unit": "%"}, {"measurement": "viability, T/C", "setting": "[21]", "value": 70.2, "unit": "%"}, {"measurement": "viability, T/C", "setting": "[22]", "value": 83.2, "unit": "%"}, {"measurement": "viability, T/C", "setting": "[23]", "value": 76.6, "unit": "%"}, {"measurement": "viability, T/C", "setting": "[24]", "value": 73.3, "unit": "%"}, {"measurement": "viability, T/C", "setting": "[25]", "value": 86, "unit": "%"}, {"measurement": "viability, T/C", "setting": "[26]", "value": 89.8, "unit": "%"}, {"measurement": "viability, T/C", "setting": "[27]", "value": 84.8, "unit": "%"}, {"measurement": "viability, T/C", "setting": "[28]", "value": 65.5, "unit": "%"}, {"measurement": "viability, T/C", "setting": "[29]", "value": 88.2, "unit": "%"}, {"measurement": "viability, T/C", "setting": "[30]", "value": 73.2, "unit": "%"}, {"measurement": "viability, T/C", "setting": "[31]", "value": 76.6, "unit": "%"}, {"measurement": "viability, T/C", "setting": "[32]", "value": 67.2, "unit": "%"}, {"measurement": "viability, T/C", "setting": "[33]", "value": 87.9, "unit": "%"}, {"measurement": "viability, T/C", "setting": "[34]", "value": 72.9, "unit": "%"}, {"measurement": "viability, T/C", "setting": "[35]", "value": 85, "unit": "%"}, {"measurement": "viability, T/C", "setting": "[36]", "value": 66.3, "unit": "%"}]}, {"smiles": "CC1(O)CCCC1n1c(=O)c(C(F)F)cc2cnc(NC3CCN(S(C)(=O)=O)CC3)nc21", "note": "(centres undefined) + C=CC(=O)N1CCN(c2nc(OCC3CCCN3C)nc3c(F)c(-c4nc(N)cc(C)c4C(F)(F)F)c(Cl)cc23)C(C)C1", "values": [{"measurement": "pIC50", "setting": "second compound 0.00316 µM", "value": 5.25}, {"measurement": "pIC50", "setting": "second compound 0.01 µM", "value": 5.27}, {"measurement": "pIC50", "setting": "second compound 0.0316 µM", "value": 5.28}, {"measurement": "pIC50", "setting": "second compound 0.1 µM", "value": 5.25}, {"measurement": "pIC50", "setting": "second compound 0.316 µM", "value": 5.29}, {"measurement": "pIC50", "setting": "second compound 1 µM", "value": 5.20}, {"measurement": "viability, T/C", "setting": "[1]", "value": 74.3, "unit": "%"}, {"measurement": "viability, T/C", "setting": "[2]", "value": 63.4, "unit": "%"}, {"measurement": "viability, T/C", "setting": "[3]", "value": 57.5, "unit": "%"}, {"measurement": "viability, T/C", "setting": "[4]", "value": 63.5, "unit": "%"}, {"measurement": "viability, T/C", "setting": "[5]", "value": 75.9, "unit": "%"}, {"measurement": "viability, T/C", "setting": "[6]", "value": 32.5, "unit": "%"}, {"measurement": "viability, T/C", "setting": "[7]", "value": 82.5, "unit": "%"}, {"measurement": "viability, T/C", "setting": "[8]", "value": 65.5, "unit": "%"}, {"measurement": "viability, T/C", "setting": "[9]", "value": 56.6, "unit": "%"}, {"measurement": "viability, T/C", "setting": "[10]", "value": 71.9, "unit": "%"}, {"measurement": "viability, T/C", "setting": "[11]", "value": 68.8, "unit": "%"}, {"measurement": "viability, T/C", "setting": "[12]", "value": 27.5, "unit": "%"}, {"measurement": "viability, T/C", "setting": "[13]", "value": 77.6, "unit": "%"}, {"measurement": "viability, T/C", "setting": "[14]", "value": 57.2, "unit": "%"}, {"measurement": "viability, T/C", "setting": "[15]", "value": 63.4, "unit": "%"}, {"measurement": "viability, T/C", "setting": "[16]", "value": 63.2, "unit": "%"}, {"measurement": "viability, T/C", "setting": "[17]", "value": 68.5, "unit": "%"}, {"measurement": "viability, T/C", "setting": "[18]", "value": 29, "unit": "%"}, {"measurement": "viability, T/C", "setting": "[19]", "value": 78.4, "unit": "%"}, {"measurement": "viability, T/C", "setting": "[20]", "value": 71.7, "unit": "%"}, {"measurement": "viability, T/C", "setting": "[21]", "value": 54.4, "unit": "%"}, {"measurement": "viability, T/C", "setting": "[22]", "value": 64.7, "unit": "%"}, {"measurement": "viability, T/C", "setting": "[23]", "value": 76.3, "unit": "%"}, {"measurement": "viability, T/C", "setting": "[24]", "value": 30.7, "unit": "%"}, {"measurement": "viability, T/C", "setting": "[25]", "value": 86.3, "unit": "%"}, {"measurement": "viability, T/C", "setting": "[26]", "value": 65.6, "unit": "%"}, {"measurement": "viability, T/C", "setting": "[27]", "value": 67.2, "unit": "%"}, {"measurement": "viability, T/C", "setting": "[28]", "value": 69.5, "unit": "%"}, {"measurement": "viability, T/C", "setting": "[29]", "value": 66.4, "unit": "%"}, {"measurement": "viability, T/C", "setting": "[30]", "value": 27.8, "unit": "%"}, {"measurement": "viability, T/C", "setting": "[31]", "value": 78.3, "unit": "%"}, {"measurement": "viability, T/C", "setting": "[32]", "value": 55.9, "unit": "%"}, {"measurement": "viability, T/C", "setting": "[33]", "value": 71, "unit": "%"}, {"measurement": "viability, T/C", "setting": "[34]", "value": 64.2, "unit": "%"}, {"measurement": "viability, T/C", "setting": "[35]", "value": 68.4, "unit": "%"}, {"measurement": "viability, T/C", "setting": "[36]", "value": 38.2, "unit": "%"}]}, {"smiles": "CCC(CC)c1cc(NC2CCC(N)C2)n2nccc2n1", "note": "(centres undefined)", "values": [{"measurement": "viability, T/C", "setting": "compound 0.1 µM", "value": "107% [middle of 4 runs]"}, {"measurement": "viability, T/C", "setting": "compound 0.316 µM", "value": "120% [middle of 4 runs]"}, {"measurement": "viability, T/C", "setting": "compound 3.16 µM", "value": "14% [middle of 4 runs]"}, {"measurement": "viability, T/C", "setting": "compound 10 µM", "value": "19.9% [middle of 4 runs]"}, {"measurement": "IC50", "setting": "curve of compound", "value": "2.01 µM [middle of 4 runs]"}]}]}
